Experimental data as given in US20210106703A1, “RADIOIMMUNOCONJUGATES IN COMBINATION WITH OTHER DRUGS AS TREATMENT AGAINST NHL” (Nordic Nanovector ASA, priority 2017, published 2021).
Where two headings read alike, the source gives them in different places.

What was measured:
Assay type in all cases: cell-based, human
[1] = tested on: SUDHL4 cells; assay: Alamar Blue cytotoxicity study; conditions: for IC50: Homo sapiens; for Combination Index (Chou-Talalay): 120 h
Procedure: Cells were incubated with 0.25, 0.5, 1, 2.5 or 5 μg/ml of Humalutin in cell culture flasks and incubated at 37° C./5% CO2. After 18-20 hours cells were washed and resuspended in fresh medium. Cell bound activity after washing was measured using a calibrated gamma detector (Cobra II auto-gamma detector, Packard Instrument Company, Meriden, Conn., USA). Cell concentration and viability was also measured after washing using Guava ViaCount Cell Dispersal Reagent for Flow Cytometry (Merck GaA, Darmstadt, Germany) and measured in a Guava EasyCyte 12HT (Merck KGaA, Darmstadt, Germany) to determine how well the cells survived the incubation. Cells were seeded in 96 well plates. […]
Cells were treated with either Humalutin, venetoclax or a combination of both and seeded into 96 well-plates. At each time point after treatment, cells were incubated with Alamar Blue (Thermo Fisher, DALL1100) for 4 hours and fluorescence measurements were performed using a multiplate reader Fluoroskan ascent FL to assess cell proliferation and viability. All experiments were done in duplicates using 2 samples in each experiment. Data were normalized to the untreated controls.
Cells were incubated with either 0, 0.5 μg/ml or 1 μg/ml Humalutin and the same procedure as described before for treatment with Humalutin alone and venetoclax alone was followed.
The Chou-Talalay model was used for synergy calculations using the Compusyn software. R (goodness of fit) was calculated for the individual treatments and should be over 0.90 in in vitro culture experiments in order to use with confidence the calculated combination index (CI). The CI is an indication of synergy: 0-0.9 is considered synergy. Synergysm grading was used as described in WO2006004917A2.
Cells were incubated with 0.25, 0.5, 1, 2.5 or 5 μg/ml of Humalutin in cell culture flasks and incubated at 37° C./5% CO2. After 18-20 hours cells were washed and resuspended in fresh medium. Cell bound activity after washing was measured using a calibrated gamma detector (Cobra II auto-gamma detector, Packard Instrument Company, Meriden, Conn., USA). Cell concentration and viability were also measured after washing using Guava ViaCount Cell Dispersal Reagent for Flow Cytometry (Merck GaA, Darmstadt, Germany) and measured in a Guava EasyCyte 12HT (Merck KGaA, Darmstadt, Germany) to determine how well the cells survived the incubation. Cells were seeded in 96 well plates. Alamar blue viability measurements were performed 120 h after seeding.
Cells were incubated with either 0 (control), 0.5 μg/ml or 1 μg/ml Humalutin for 18 to 20 hours. Cells were then washed and resuspended in fresh medium.

[2] = tested on: OCI-Ly8 cells; assay: Cell cycle analysis (PI, Muse flow cytometer); conditions: OCI-Ly8, 1 μM inhibitor + ^177Lu-lilotomab, versus ^177Lu-lilotomab alone
Procedure: Cells were harvested at 0 […], and fixed in 70% ethanol at -20° C. for at least 3 h. After staining with the Muse® Cell Cycle Assay Kit (Merck Millipore, Molsheim, France) using propidium iodide in the dark at room temperature for 30 min, cell cycle distribution was analyzed using a Muse® flow cytometer. The percentage of cells in the G0/G1, S and G2/M was calculated (mean of three experiments in triplicate) and the effect of WEE-1 and MYT-1 kinase inhibitors on the cell cycle was assessed.

[3] = tested on: CDK1 and its phosphorylations, p345-Chk1, Wee-1, Myt-1, CDK7 in Ramos cells; assay: Protein expression by Western blot
Procedure: (§1) Protein expression was assessed in 1×10^6 Ramos, DOHH2 or Rec-1 cells/mL grown in 12-well plates and exposed for 18 h to 0 and 6 MBq/mL of ^177Lu-lilotomab. Cells were harvested at 0, 2 h, 18 h, 1 d, 2 d and 3 d of RIT. At each time point, cells were rinsed and incubated in RIPA buffer (Santa Cruz) at 4° C. for 30 minutes. Cells were centrifuged and supernatant (containing proteins) were collected. Proteins were electrophoresed through SDS-PAGE using 12% poly-acrylamide gels and electrotransferred onto nitrocellulose membranes. Blots were incubated with anti-CDK1, anti-p-CDK1(Tyr15) (clone 10A11), anti-p-CDK1(Thr14), anti-p-CDK1(Thr161), anti-CDK7, anti-Wee-1 (clone D10D2), anti-Myt-1, anti-p-CHK1 (Ser345) and anti-human GAPDH (1/1000, Cell Signaling Technologies, Leiden, The Netherlands) primary antibodies. Blot were washed and incubated with horseradish peroxidase-conjugated anti-mouse Ig (115-036-072, Jackson ImmunoResearch) or with horseradish peroxidase-conjugated anti-rabbit Ig (7074, Cell Signaling). Signal detection of immunoblots was carried out using the enhanced chemiluminescence protocol according to the manufacturer's instructions (Clarity™ Western ECL blotting substrates, 1705061, BioRad). PXi analyser (Ozyme) was used to measure levels of protein expression.

[4] = tested on: CDK1 and its phosphorylations, p345-Chk1, Wee-1, Myt-1, CDK7 in DOHH2 cells; assay: Protein expression by Western blot
Procedure: as §1

[5] = tested on: CDK1 and its phosphorylations, p345-Chk1, Wee-1, Myt-1, CDK7 in Rec-1 cells; assay: Protein expression by Western blot
Procedure: as §1

CC1(C)CCC(CN2CCN(c3ccc(C(=O)NS(=O)(=O)c4ccc(NCC5CCOCC5)c([N+](=O)[O-])c4)c(Oc4cnc5[nH]ccc5c4)c3)CC2)=C(c2ccc(Cl)cc2)C1 [venetoclax]
IC50 ([1]; SU-DHL-4, read-out: IC50 at 120 h, SUDHL-4, 120 h incubation after seeding): 2.42 µM | IC50 ([1]; SU-DHL-4, SUDHL4, 72 h incubation after seeding, read-out: IC50): 3.66 µM | Combination Index (Chou-Talalay) ([1]; SUDHL-4, drug 10 μM + Humalutin 0.5 μg/ml): 2.43 | Combination Index (Chou-Talalay) ([1]; SUDHL-4, drug 10 μM + Humalutin 1 μg/ml): 0.09 | Combination Index (Chou-Talalay) ([1]; SUDHL-4, drug 40 μM + Humalutin 0.5 μg/ml): 3.77 | Combination Index (Chou-Talalay) ([1]; SUDHL-4, drug 40 μM + Humalutin 1 μg/ml): 0.11 | Combination Index (Chou-Talalay) ([1]; SUDHL-4, drug 80 μM + Humalutin 0.5 μg/ml): 0.50 | Combination Index (Chou-Talalay) ([1]; SUDHL-4, drug 80 μM + Humalutin 1 μg/ml): 0.06 | Combination Index (Chou-Talalay) ([1]; SUDHL-4, drug 100 μM + Humalutin 0.5 μg/ml): 0.83 | Combination Index (Chou-Talalay) ([1]; SUDHL-4, drug 100 μM + Humalutin 1 μg/ml): 0.02 | Combination Index (Chou-Talalay) ([1]; SUDHL-4, venetoclax 0.25 + Humalutin 0.5 μg/ml): 0.01 | Combination Index (Chou-Talalay) ([1]; SUDHL-4, venetoclax 0.25 + Humalutin 1 μg/ml): 0.06 | Combination Index (Chou-Talalay) ([1]; SUDHL-4, venetoclax 0.5 + Humalutin 0.5 μg/ml): 0.003 | Combination Index (Chou-Talalay) ([1]; SUDHL-4, venetoclax 0.5 + Humalutin 1 μg/ml): 0.01 | Combination Index (Chou-Talalay) ([1]; SUDHL-4, venetoclax 1 + Humalutin 0.5 μg/ml): 0.01 | Combination Index (Chou-Talalay) ([1]; SUDHL-4, venetoclax 1 + Humalutin 1 μg/ml): 0.09 | Combination Index (Chou-Talalay) ([1]; SUDHL-4, venetoclax 2.5 + Humalutin 0.5 μg/ml): 0.02 | Combination Index (Chou-Talalay) ([1]; SUDHL-4, venetoclax 2.5 + Humalutin 1 μg/ml): 0.12

C=CCn1c(=O)c2cnc(Nc3ccc(N4CCN(C)CC4)cc3)nc2n1-c1cccc(C(C)(C)O)n1 [MK-1775]
Proportion of cells in G2/M, inhibitor combined with ^177Lu-lilotomab [2]: reduction of the fraction of G2/M cells

B1: Lutetium-177 [^177Lu]-lilotomab satetraxetan (conjugate, chains of the INN, looked up)
VH: EIQLQQSGPELVKPGASVKVSCKASGYSFTDYNMYWVKQSHGKSLEWIGYIDPYNGDTTYNQKFKGKATLTVDKSSSTAFIHLNSLTSEDSAVYYCARSPYGHYAMDYWGQGTSVTVSS
VL: DIVMTQSHKLLSTSVGDRVSITCKASQDVSTAVDWYQQKPGQSPKLLINWASTRHTGVPDRFTGSGSGTDYTLTISSMQAEDLALYYCRQHYSTPFTFGSGTKLEIK
modifications: 177Lu satetraxetan chelator conjugate
Activating pThr161 CDK1 phosphorylation ([3]; 6 MBq/mL for 18 h): transient low levels | CDK1 level ([3]; 6 MBq/mL for 18 h): quite stable | Inhibitory pTyr15 and pThr14 CDK1 phosphorylations ([3]; 6 MBq/mL for 18 h): high persistent levels | Expression of Myt-1 ([3]; 18 h after treatment): decreased | Level of phosphorylated CHK1 (Ser345) ([3]; at 18-24 h): increased | Expression of Wee-1 ([3]; between 18 and 48 h): comparable in control and treated | Expression of Wee-1 ([4]; DOHH2): became undetectable at 24 h post-treatment | Activating pThr161 CDK1 phosphorylation ([4]; DOHH2, 6 MBq/mL for 18 h): persistent increase | CDK1 level ([4]; DOHH2, 6 MBq/mL for 18 h): decreased in DOHH2 at 48 h and 72 h | Inhibitory pTyr15 and pThr14 CDK1 phosphorylations ([4]; DOHH2, 6 MBq/mL for 18 h): dropped respectively at 24 h and 48 h | Expression of Myt-1 ([4]; DOHH2, 18 h after treatment): decreased | Level of phosphorylated CHK1 (Ser345) ([4]; DOHH2, at 18-24 h): increased | Levels of CDK7 ([4]; DOHH2, compared with Ramos cells): stable or increased | Level of phosphorylated CHK1 (Ser345) ([5]; Rec-1): remained stable until 18 h before progressively decreasing | Activating pThr161 CDK1 phosphorylation ([5]; Rec-1, 6 MBq/mL for 18 h): undetectable | CDK1 level ([5]; Rec-1, 6 MBq/mL for 18 h): quite stable | Expression of Myt-1 ([5]; Rec-1, 18 h after treatment): decreased | Expression of Wee-1 ([5]; Rec-1, between 18 and 48 h): comparable in control and treated | Levels of CDK7 ([5]; Rec-1, compared with Ramos cells): stable or increased
